Results published in patent publication US11026427B2, “Microbiocidal oxadiazole derivatives” (SYNGENTA PARTICIPATIONS AG, priority 2016, dated 2021).
One block for each molecule: values may come before it.

Key:
[1] = test system: Glomerella lacenarium (Colletotrichum lacenarium); test: Glomerella lacenarium (Colletotrichum lacenarium) liquid culture / cucumber / preventative (anthracnose); type: cell-based; settings: 20 ppm in the applied formulation, growth inhibition measured photometrically, compared to untreated control, read-out: disease control
Description: Mycelia fragments or conidia suspensions of a fungus prepared either freshly from liquid cultures of the fungus or from cryogenic storage, are directly mixed into nutrient broth. DMSO solutions of the test compound (max. 10 mg/ml) are diluted with 0.025% Tween20 by a factor of 50 and 10 μl of this solution is pipetted into a microtiter plate (96-well format). The nutrient broth containing the fungal spores/mycelia fragments is then added to give an end concentration of the tested compound. The test plates are incubated in the dark at 24° C. and 96% relative humidity. The inhibition of fungal growth is determined photometrically after 2 to 7 days, depending on the pathosystem, and percent antifungal activity relative to the untreated check is calculated.
Conidia of the fungus from cryogenic storage are directly mixed into nutrient broth (PDB—potato dextrose broth). After placing a (DMSO) solution of test compound into a microtiter plate (96-well format), the nutrient broth containing the fungal spores is added. The test plates are incubated at 24° C. and the inhibition of growth is measured photometrically 3 to 4 days after application.
The following compounds at 20 ppm in the applied formulation give at least 80% disease control in this test when compared to untreated control under the same conditions, which show extensive disease development.

[2] = test system: Phakopsora pachyrhizi; test: Phakopsora pachyrhizi / soybean / leaf disc preventative (Asian soybean rust); type: in vivo; settings: foliar, 200 ppm in the applied formulation, compared to untreated control, read-out: disease control
Description: (§1) Leaf disks or leaf segments of various plant species are cut from plants grown in a greenhouse. The cut leaf disks or segments are placed in multiwell plates (24-well format) onto water agar. The leaf disks are sprayed with a test solution before (preventative) or after (curative) inoculation. Compounds to be tested are prepared as DMSO solutions (max. 10 mg/ml) which are diluted to the appropriate concentration with 0.025% Tween20 just before spraying. The inoculated leaf disks or segments are incubated under defined conditions (temperature, relative humidity, light, etc.) according to the respective test system. A single evaluation of disease level is carried out 3 to 14 days after inoculation, depending on the pathosystem. Percent disease control relative to the untreated check leaf disks or segments is then calculated.
Soybean leaf disks are placed on water agar in multiwell plates (24-well format) and sprayed with the formulated test compound diluted in water. One day after application leaf discs are inoculated by spraying a spore suspension on the lower leaf surface. After an incubation period in a climate cabinet of 24-36 hours in darkness at 20° C. and 75% rh leaf disc are kept at 20° C. with 12 h light/day and 75% rh. The activity of a compound is assessed as percent disease control compared to untreated when an appropriate level of disease damage appears in untreated check leaf disks (12 to 14 days after application).
(§2) The following compounds at 200 ppm in the applied formulation give at least 80% disease control in this test when compared to untreated control leaf disks under the same conditions, which show extensive disease development.

[3] = test system: Puccinia recondita f. Sp. tritici; test: Puccinia recondita f. sp. tritici / wheat / leaf disc curative (brown rust); type: in vivo; settings: foliar, 200 ppm in the applied formulation, compared to untreated control, read-out: disease control
Description: as §1
Wheat leaf segments cv. Kanzler are placed on agar in multiwell plates (24-well format). The leaf segments are then inoculated with a spore suspension of the fungus. Plates were stored in darkness at 19° C. and 75% relative humidity. The formulated test compound diluted in water was applied 1 day after inoculation. The leaf segments were incubated at 19° C. and 75% relative humidity under a light regime of 12 hours light/12 hours darkness in a climate cabinet and the activity of a compound was assessed as percent disease control compared to untreated when an appropriate level of disease damage appears in untreated check leaf segments (6 to 8 days after application).
as §2

[4] = test system: Puccinia recondita f. Sp. tritici; test: Puccinia recondita f. sp. tritici / wheat / leaf disc preventative (brown rust); type: in vivo; settings: foliar, 200 ppm in the applied formulation, compared to untreated control, read-out: disease control
Description: as §1, with “calculated. Wheat leaf segments cv. Kanzler were placed on agar in multiwell plates (24-well format) and sprayed with the formulated test compound diluted in water. The leaf disks were inoculated with a spore suspension of the fungus 1 day after application. The inoculated leaf segments were incubated at 19° C. and 75% relative humidity (rh) under a light regime of 12 hours light/12 hours darkness in a climate cabinet and the activity of a compound was assessed as percent disease control compared to untreated when an appropriate level of disease damage appears in untreated check leaf segments (7 to 9 days after application). The following compounds at 200 ppm in the applied formulation give at least 80% disease control in this test when compared to untreated control leaf disks under the same conditions, which show extensive disease development.” for “calculated.”

SMILES: Cc1cncc(C(=O)c2ccc(-c3noc(C(F)(F)F)n3)cc2)c1 [Compound 1.36, (5-methyl-3-pyridyl)-[4-[5-(trifluoromethyl)-1,2,4-oxadiazol-3-yl]phenyl]methanone]
melting point: 80 to 84 °C

SMILES: CCOC(=O)c1cnc(C(=O)c2ccc(-c3noc(C(F)(F)F)n3)cc2)nc1C [Compound 1.31, ethyl 4-methyl-2-[4-[5-(trifluoromethyl)-1,2,4-oxadiazol-3-yl]benzoyl]pyrimidine-5-carboxylate]
melting point: 92 to 93 °C
inhibition of growth at 20 ppm [1]: ≥ 80%

SMILES: O=C(c1ccc(-c2noc(C(F)(F)F)n2)cc1)c1ncc(C(F)(F)F)s1 [Compound 1.21, [4-[5-(trifluoromethyl)-1,2,4-oxadiazol-3-yl]phenyl]-[5-(trifluoromethyl)thiazol-2-yl]methanone]
melting point: 90 to 94 °C

SMILES: O=C(c1ccc(-c2noc(C(F)(F)F)n2)cc1)c1cccc(OC(F)F)c1 [Compound 1.29, [3-(difluoromethoxy)phenyl]-[4-[5-(trifluoromethyl)-1,2,4-oxadiazol-3-yl]phenyl]methanone]
melting point: 85 to 88 °C
inhibition of growth at 20 ppm [1]: ≥ 80%
pest or weed control at 200 ppm [2]: ≥ 80%

SMILES: Cc1cc(C(C)(O)c2ccc(-c3noc(C(F)(F)F)n3)cc2)on1 (stereo not drawn) [Compound 2.26, 1-(3-methylisoxazol-5-yl)-1-[4-[5-(trifluoromethyl)-1,2,4-oxadiazol-3-yl]phenyl]ethanol]
pest or weed control at 200 ppm [3]: ≥ 80%
pest or weed control at 200 ppm [4]: ≥ 80%

SMILES: O=C(c1ccc(-c2noc(C(F)(F)F)n2)cc1)c1cscn1 [Compound 1.32, thiazol-4-yl-[4-[5-(trifluoromethyl)-1,2,4-oxadiazol-3-yl]phenyl]methanone]
melting point: 68 to 74 °C
inhibition of growth at 20 ppm [1]: ≥ 80%
pest or weed control at 200 ppm [2]: ≥ 80%

SMILES: Cc1ncc(C(=O)c2ccc(-c3noc(C(F)(F)F)n3)cc2)s1 [Compound 1.34, (2-methylthiazol-5-yl)-[4-[5-(trifluoromethyl)-1,2,4-oxadiazol-3-yl]phenyl]methanone]
pest or weed control at 200 ppm [3]: ≥ 80%
melting point: 116 to 120 °C
inhibition of growth at 20 ppm [1]: ≥ 80%

SMILES: O=C(c1ccc(-c2noc(C(F)(F)F)n2)cc1)c1ccc(F)cc1F [Compound 1.28, (2,4-difluorophenyl)-[4-[5-(trifluoromethyl)-1,2,4-oxadiazol-3-yl]phenyl]methanone]
melting point: 92 to 95 °C
inhibition of growth at 20 ppm [1]: ≥ 80%
pest or weed control at 200 ppm [2]: ≥ 80%

SMILES: O=C(c1ccc(-c2noc(C(F)(F)F)n2)cc1)c1cnc(C(F)(F)F)s1 [Compound 1.23, [4-[5-(trifluoromethyl)-1,2,4-oxadiazol-3-yl]phenyl]-[2-(trifluoromethyl)thiazol-5-yl]methanone]
melting point: 126 to 132 °C

SMILES: Cc1cc(C(O)(c2ccc(-c3noc(C(F)(F)F)n3)cc2)C(C)C)on1 (stereo not drawn) [Compound 2.29, 2-methyl-1-(3-methylisoxazol-5-yl)-1-[4-[5-(trifluoromethyl)-1,2,4-oxadiazol-3-yl]phenyl]propan-1-ol]
pest or weed control at 200 ppm [4]: ≥ 80%

SMILES: CCCCC(=O)c1ccc(-c2noc(C(F)(F)F)n2)cc1 [Compound 1.5, 1-[4-[5-(trifluoromethyl)-1,2,4-oxadiazol-3-yl]phenyl]pentan-1-one]
melting point: 57 to 61 °C
inhibition of growth at 20 ppm [1]: ≥ 80%

SMILES: COc1ccc(C(=O)c2ccc(-c3noc(C(F)(F)F)n3)cc2)cn1 [Compound 1.15, (6-methoxy-3-pyridyl)-[4-[5-(trifluoromethyl)-1,2,4-oxadiazol-3-yl]phenyl]methanone]
melting point: 105 to 110 °C
inhibition of growth at 20 ppm [1]: ≥ 80%
pest or weed control at 200 ppm [2]: ≥ 80%

SMILES: OC(c1ccc(-c2noc(C(F)(F)F)n2)cc1)c1ccc(F)cc1F (stereo not drawn) [Compound 2.15, (2,4-difluorophenyl)-[4-[5-(trifluoromethyl)-1,2,4-oxadiazol-3-yl]phenyl]methanol]
pest or weed control at 200 ppm [4]: ≥ 80%
inhibition of growth at 20 ppm [1]: ≥ 80%
pest or weed control at 200 ppm [2]: ≥ 80%

SMILES: O=C(c1ccc(-c2noc(C(F)(F)F)n2)cc1)c1cnn(C(F)(F)F)c1 [Compound 1.26, [4-[5-(trifluoromethyl)-1,2,4-oxadiazol-3-yl]phenyl]-[1-(trifluoromethyl)pyrazol-4-yl]methanone]
melting point: 98 to 102 °C
pest or weed control at 200 ppm [2]: ≥ 80%

SMILES: CCOC(=O)c1cnn(CC(=O)c2ccc(-c3noc(C(F)(F)F)n3)cc2)c1 [Compound 1.19, ethyl 1-[2-oxo-2-[4-[5-(trifluoromethyl)-1,2,4-oxadiazol-3-yl]phenyl]ethyl]pyrazole-4-carboxylate]
melting point: 153.6 to 156.1 °C

SMILES: C=CCC(O)(c1ccc(-c2noc(C(F)(F)F)n2)cc1)c1cc(C)no1 (stereo not drawn) [Compound 2.23, 1-(3-methylisoxazol-5-yl)-1-[4-[5-(trifluoromethyl)-1,2,4-oxadiazol-3-yl]phenyl]but-3-en-1-ol]
pest or weed control at 200 ppm [3]: ≥ 80%

SMILES: CCOC(=O)c1csc(C(=O)c2ccc(-c3noc(C(F)(F)F)n3)cc2)n1 [Compound 1.25, ethyl 2-[4-[5-(trifluoromethyl)-1,2,4-oxadiazol-3-yl]benzoyl]thiazole-4-carboxylate]
melting point: 78 to 82 °C

SMILES: CCOC(=O)c1cc(C(=O)c2ccc(-c3noc(C(F)(F)F)n3)cc2)on1 [Compound 1.22, ethyl 5-[4-[5-(trifluoromethyl)-1,2,4-oxadiazol-3-yl]benzoyl]isoxazole-3-carboxylate]
melting point: 197 to 200 °C
inhibition of growth at 20 ppm [1]: ≥ 80%

Second part, led by results:

melting point: 60 to 75 °C
SMILES: CC(C)(C)C(O)c1ccc(-c2noc(C(F)(F)F)n2)cc1 (stereo not drawn) [Compound 2.1, 2,2-dimethyl-1-[4-[5-(trifluoromethyl)-1,2,4-oxadiazol-3-yl]phenyl]propan-1-ol]
inhibition of growth at 20 ppm [1]: ≥ 80%
pest or weed control at 200 ppm [2]: ≥ 80%

melting point: 66 to 68 °C
SMILES: CCC(O)c1ccc(-c2noc(C(F)(F)F)n2)cc1 (stereo not drawn) [Compound 2.16, 1-[4-[5-(trifluoromethyl)-1,2,4-oxadiazol-3-yl]phenyl]propan-1-ol]
inhibition of growth at 20 ppm [1]: ≥ 80%

melting point: 79 to 80 °C
SMILES: N#CC(O)c1ccc(-c2noc(C(F)(F)F)n2)cc1 (stereo not drawn) [Compound 2.11, 2-hydroxy-2-[4-[5-(trifluoromethyl)-1,2,4-oxadiazol-3-yl]phenyl]acetonitrile]
pest or weed control at 200 ppm [4]: ≥ 80%
inhibition of growth at 20 ppm [1]: ≥ 80%

melting point: 118 to 122 °C
SMILES: CCOC(=O)c1csc(C(O)c2ccc(-c3noc(C(F)(F)F)n3)cc2)n1 (stereo not drawn) [Compound 2.19, ethyl 2-[hydroxy-[4-[5-(trifluoromethyl)-1,2,4-oxadiazol-3-yl]phenyl]methyl]thiazole-4-carboxylate]
pest or weed control at 200 ppm [4]: ≥ 80%

melting point: 45 to 48 °C
SMILES: C=CCC(O)c1ccc(-c2noc(C(F)(F)F)n2)cc1 (stereo not drawn) [Compound 2.17, 1-[4-[5-(trifluoromethyl)-1,2,4-oxadiazol-3-yl]phenyl]but-3-en-1-ol]
inhibition of growth at 20 ppm [1]: ≥ 80%
pest or weed control at 200 ppm [2]: ≥ 80%
